Laboratory results reported in patent publication US20240050428A1 (Cullgen (Shanghai), Inc., priority 2020, published 2024).
pIC50: −log10 of the molar value. Read-outs that look alike come from different tables or passages of the source.

What was measured:
MOLM-13 cells = assay: Cell viability assay (CellTiter-Glo) in MOLM-13 cells, alone or with gilteritinib; type: cell-based; conditions: Homo sapiens, MOLM-13 cells, three days, CellTiter-Glo
MV4;11 cells = assay: Cell viability assay (CellTiter-Glo) in MV4;11 cells, alone or with gilteritinib; type: cell-based; conditions: Homo sapiens, MV4;11 cells, three days, CellTiter-Glo, read-out: MV4
[1] = 72 h, compound alone (without gilteritinib), read-out: MOLM-13 IC50
[2] = 72 h, with gilteritinib 20 nM, read-out: MOLM-13 IC50 gilteritinib
[3] = 72 h, compound alone (without gilteritinib), 11 IC50
[4] = 72 h, with gilteritinib 10 nM, 11 IC50 gilteritinib
[5] = MOLM-13, 72 h, compound alone (without gilteritinib), read-out: MOLM-13 IC50
[6] = MOLM-13, 72 h, with gilteritinib 20 nM, read-out: MOLM-13 IC50 gilteritinib
[7] = MV4-11, 72 h, compound alone (without gilteritinib), 11 IC50
[8] = MV4-11, 72 h, with gilteritinib 10 nM, 11 IC50 gilteritinib

| SMILES | pIC50 (MOLM-13 cells; [5]) | pIC50 (MOLM-13 cells; [6]) | pIC50 (MV4;11 cells; [7]) | pIC50 (MV4;11 cells; [8]) | pIC50 (MOLM-13 cells; [1]) | pIC50 (MOLM-13 cells; [2]) | pIC50 (MV4;11 cells; [3]) | pIC50 (MV4;11 cells; [4]) |
| --- | --- | --- | --- | --- | --- | --- | --- | --- |
| O=C1CCC(N2Cc3ccc(CCCCCC(=O)N4CCC(c5ccc(Cl)cc5)CC4)cc3C2=O)C(=O)N1 (stereo not shown) [GS-114, 3-(6-(6-(4-(4-Chlorophenyl)piperidin-1-yl)-6-oxohexyl)-1-oxoisoindolin-2-yl)piperidine-2,6-dione] | – | – | – | – | 6.00 to 7.00 | 7.00 to 8.00 | 6.00 to 7.00 | 7.00 to 8.00 |
| O=C1CCC(N2Cc3ccc(CCCCCCC(=O)N4CCC(c5cccc(Cl)c5)CC4)cc3C2=O)C(=O)N1 (stereo not shown) [GS-115, 3-(6-(7-(4-(3-Chlorophenyl)piperidin-1-yl)-7-oxoheptyl)-1-oxoisoindolin-2-yl)piperidine-2,6-dione] | 7.00 to 8.00 | > 8.00 | 6.00 to 7.00 | 7.00 to 8.00 | – | – | – | – |
| O=C1CCC(N2Cc3ccc(CCCCCCC(=O)N4CCC(c5ccc(Cl)cc5)CC4)cc3C2=O)C(=O)N1 (stereo not shown) [GS-116, 3-(6-(7-(4-(4-Chlorophenyl)piperidin-1-yl)-7-oxoheptyl)-1-oxoisoindolin-2-yl)piperidine-2,6-dione] | – | – | – | – | 6.00 to 7.00 | > 8.00 | 7.00 to 8.00 | > 8.00 |
| O=C1CCC(N2Cc3c(NC4CCCC(Nc5ccnc(N6CCC(n7cc(-c8cnc9ccccc9n8)cn7)CC6)n5)C4)cccc3C2=O)C(=O)N1 (stereo not shown) [GS-119, 3-(1-Oxo-4-((3-((2-(4-(4-(quinoxalin-2-yl)-1H-pyrazol-1-yl)piperidin-1-yl)pyrimidin-4-yl)amino)cyclohexyl)amino)isoindolin-2-yl)piperidine-2,6-dione] | < 6.00 | 6.00 to 7.00 | < 6.00 | 7.00 to 8.00 | – | – | – | – |
| O=C1CCC(N2Cc3cc(CNC(=O)C45CC(C(=O)N6CCC(n7cc(-c8cnc9ccccc9n8)cn7)CC6)(C4)C5)ccc3C2=O)C(=O)N1 (stereo not shown) [GS-120, N-((2-(2,6-dioxopiperidin-3-yl)-1-oxoisoindolin-5-yl)methyl)-3-(4-(4-(quinoxalin-2-yl)-1H-pyrazol-1-yl)piperidine-1-carbonyl)bicyclo[1.1.1]pentane-1-carboxamide] | 7.00 to 8.00 | > 8.00 | 7.00 to 8.00 | > 8.00 | – | – | – | – |
| O=C(CC12CC(C(=O)N3CCC(n4cc(-c5cnc6ccccc6n5)cn4)CC3)(C1)C2)NCc1ccc2c(c1)CN(C1CCC(=O)NC1=O)C2=O (stereo not shown) [GS-121, N-((2-(2,6-dioxopiperidin-3-yl)-1-oxoisoindolin-5-yl)methyl)-2-(3-(4-(4-(quinoxalin-2-yl)-1H-pyrazol-1-yl)piperidine-1-carbonyl)bicyclo[1.1.1]pentan-1-yl)acetamide] | < 6.00 | 6.00 to 7.00 | 6.00 to 7.00 | 7.00 to 8.00 | – | – | – | – |
| O=C(Cc1ccc(N2CCC(n3cc(-c4cnc5ccccc5n4)cn3)CC2)cc1)NCc1ccc2c(c1)CN(C1CCC(=O)NC1=O)C2=O (stereo not shown) [GS-122, N-((2-(2,6-dioxopiperidin-3-yl)-1-oxoisoindolin-5-yl)methyl)-2-(4-(4-(4-(quinoxalin-2-yl)-1H-pyrazol-1-yl)piperidin-1-yl)phenyl)acetamide] | > 8.00 | > 8.00 | > 8.00 | > 8.00 | – | – | – | – |
| O=C1CCC(N2Cc3c(NC4CCCC(Nc5nccc(N6CCC(n7cc(-c8cnc9ccccc9n8)cn7)CC6)n5)C4)cccc3C2=O)C(=O)N1 (stereo not shown) [GS-125, 3-(1-Oxo-4-((3-((4-(4-(4-(quinoxalin-2-yl)-1H-pyrazol-1-yl)piperidin-1-yl)pyrimidin-2-yl)amino)cyclohexyl)amino)isoindolin-2-yl)piperidine-2,6-dione] | < 6.00 | < 6.00 | 6.00 to 7.00 | 6.00 to 7.00 | – | – | – | – |
| CC(CCCCCCc1ccc2c(c1)C(=O)N(C1CCC(=O)NC1=O)C2)n1cc(-c2cnc3ccccc3n2)cn1 (stereo not shown) [GS-127, 3-(1-Oxo-6-(7-(4-(quinoxalin-2-yl)-1H-pyrazol-1-yl)octyl)isoindolin-2-yl)piperidine-2,6-dione] | < 6.00 | 6.00 to 7.00 | < 6.00 | 6.00 to 7.00 | – | – | – | – |
| O=C1CCC(N2Cc3ccc(NCCCCCCn4cc(-c5cnc6ccccc6n5)cn4)cc3C2=O)C(=O)N1 (stereo not shown) [GS-128, 3-(1-Oxo-6-((6-(4-(quinoxalin-2-yl)-1H-pyrazol-1-yl)hexyl)amino)isoindolin-2-) piperidine-2,6-dione] | < 6.00 | < 6.00 | < 6.00 | < 6.00 | – | – | – | – |
| O=C(CC12CC(N3CCC(n4cc(-c5cnc6ccccc6n5)cn4)CC3)(C1)C2)NCc1ccc2c(c1)CN(C1CCC(=O)NC1=O)C2=O (stereo not shown) [GS-130, N-((2-(2,6-dioxopiperidin-3-yl)-1-oxoisoindolin-5-yl)methyl)-2-(3-(4-(4-(quinoxalin-2-yl)-1H-pyrazol-1-yl)piperidin-1-yl)bicyclo[1.1.1]pentan-1-yl)acetamide] | < 6.00 | < 6.00 | < 6.00 | < 6.00 | – | – | – | – |
| O=C1CCC(N2Cc3c(NC4CCCN(Cc5cccc(N6CCC(n7cc(-c8cnc9ccccc9n8)cn7)CC6)c5)C4)cccc3C2=O)C(=O)N1 (stereo not shown) [GS-133, 3-(1-Oxo-4-((1-(3-(4-(4-(quinoxalin-2-yl)-1H-pyrazol-1-yl)piperidin-1-yl)benzyl)piperidin-3-yl)amino)isoindolin-2-yl)piperidine-2,6-dione] | < 6.00 | < 6.00 | < 6.00 | < 6.00 | – | – | – | – |
| Cc1nc2ccccc2nc1-c1cnn(CCCCCCCc2ccc3c(c2)C(=O)N(C2CCC(=O)NC2=O)C3)c1 (stereo not shown) [GS-134, 3-(6-(7-(4-(3-Methylquinoxalin-2-yl)-1H-pyrazol-1-yl)heptyl)-1-oxoisoindolin-2-yl)piperidine-2,6-dione] | 7.00 to 8.00 | > 8.00 | 7.00 to 8.00 | 7.00 to 8.00 | – | – | – | – |
| O=C1CCC(N2Cc3c(NC4CCCC(Nc5cccc(N6CCC(c7cccc(Cl)c7)CC6)c5)C4)cccc3C2=O)C(=O)N1 (stereo not shown) [GS-135, 3-(4-((3-((3-(4-(3-Chlorophenyl)piperidin-1-yl)phenyl)amino)cyclohexyl)amino)-1-oxoisoindolin-2-yl)piperidine-2,6-dione] | < 6.00 | < 6.00 | < 6.00 | 6.00 to 7.00 | – | – | – | – |

The next lines start with results.

| pIC50 (MOLM-13 cells; [5]) | pIC50 (MOLM-13 cells; [6]) | pIC50 (MV4;11 cells; [7]) | pIC50 (MV4;11 cells; [8]) | SMILES | pIC50 (MOLM-13 cells; [1]) | pIC50 (MOLM-13 cells; [2]) | pIC50 (MV4;11 cells; [3]) | pIC50 (MV4;11 cells; [4]) |
| --- | --- | --- | --- | --- | --- | --- | --- | --- |
| < 6.00 | 6.00 to 7.00 | < 6.00 | 6.00 to 7.00 | O=C1CCC(N2C(=O)c3ccc(NCCc4ccc(-n5cc(-c6cnc7ccccc7n6)cn5)cc4)cc3C2=O)C(=O)N1 (stereo not shown) [GS-117, 2-(2,6-Dioxopiperidin-3-yl)-5-((4-(4-(quinoxalin-2-yl)-1H-pyrazol-1-yl)phenethyl)amino)isoindoline-1,3-dione] | – | – | – | – |
| 7.00 to 8.00 | > 8.00 | < 6.00 | < 6.00 | O=C1CCC(N2C(=O)c3ccc(NCCNCC4CC4n4cc(-c5cnc6ccccc6n5)cn4)cc3C2=O)C(=O)N1 (stereo not shown) [GS-118, 2-(2,6-Dioxopiperidin-3-yl)-5-((2-(((2-(4-(quinoxalin-2-yl)-1H-pyrazol-1-yl)cyclopropyl)methyl)amino)ethyl)amino)isoindoline-1,3-dione] | – | – | – | – |
| < 6.00 | > 8.00 | 6.00 to 7.00 | 6.00 to 7.00 | O=C1CCC(N2C(=O)c3ccc(NCCCCCC4(N5CCC(n6cc(-c7cnc8ccccc8n7)cn6)CC5)CC4)cc3C2=O)C(=O)N1 (stereo not shown) [GS-123, 2-(2,6-Dioxopiperidin-3-yl)-5-((5-(1-(4-(4-(quinoxalin-2-yl)-1H-pyrazol-1-yl)piperidin-1-yl)cyclopropyl)pentyl)amino)isoindoline-1,3-dione] | – | – | – | – |
| < 6.00 | 7.00 to 8.00 | < 6.00 | < 6.00 | O=C1CCC(N2C(=O)c3ccc(NCCCCC4(N5CCC(n6cc(-c7cnc8ccccc8n7)cn6)CC5)CC4)cc3C2=O)C(=O)N1 (stereo not shown) [GS-124, 2-(2,6-Dioxopiperidin-3-yl)-5-((4-(1-(4-(4-(quinoxalin-2-yl)-1H-pyrazol-1-yl)piperidin-1-yl)cyclopropyl)butyl)amino)isoindoline-1,3-dione] | – | – | – | – |
| < 6.00 | < 6.00 | 6.00 to 7.00 | < 6.00 | O=C1CCC(N2Cc3cc(NCCCCCC4(N5CCC(n6cc(-c7cnc8ccccc8n7)cn6)CC5)CC4)ccc3C2=O)C(=O)N1 (stereo not shown) [GS-126, 3-(1-Oxo-5-((5-(1-(4-(4-(quinoxalin-2-yl)-1H-pyrazol-1-yl)piperidin-1-yl)cyclopropyl)pentyl)amino)isoindolin-2-yl)piperidine-2,6-dione] | – | – | – | – |
| < 6.00 | 6.00 to 7.00 | < 6.00 | 6.00 to 7.00 | O=C1CCC(N2C(=O)c3ccc(NCCCCS(=O)(=O)N4CCC(n5cc(-c6cnc7ccccc7n6)cn5)CC4)cc3C2=O)C(=O)N1 (stereo not shown) [GS-129, 2-(2,6-Dioxopiperidin-3-yl)-5-((4-((4-(4-(quinoxalin-2-yl)-1H-pyrazol-1-yl)piperidin-1-yl)sulfonyl)butyl)amino)isoindoline-1,3-dione] | – | – | – | – |
| < 6.00 | < 6.00 | < 6.00 | < 6.00 | O=C1CCC(N2Cc3ccc(NCCCC4CC(n5cc(-c6cnc7ccccc7n6)cn5)C4)cc3C2=O)C(=O)N1 (stereo not shown) [GS-131, 3-(1-Oxo-6-((3-(3-(4-(quinoxalin-2-yl)-1H-pyrazol-1-yl)cyclobutyl)propyl)amino)isoindolin-2-yl)piperidine-2,6-dione] | – | – | – | – |
| > 8.00 | > 8.00 | > 8.00 | > 8.00 | O=C1CCC(N2C(=O)c3ccc(NCCCNC(=O)N4CCC(n5cc(-c6cnc7ccccc7n6)cn5)CC4)cc3C2=O)C(=O)N1 (stereo not shown) [GS-132, N-(3-((2-(2,6-dioxopiperidin-3-yl)-1,3-dioxoisoindolin-5-yl)amino)propyl)-4-(4-(quinoxalin-2-yl)-1H-pyrazol-1-yl)piperidine-1-carboxamide] | – | – | – | – |
